Assay results taken from patent US5362751A, “Tracheobronchodilator using 16-substituted PGEs” (priority 1988, dated 1994).
Read-outs that look alike come from different tables or passages of the source.

Legend:
airway resistance = experiment: Inhibition of increase of airway resistance due to histamin in anesthetized guinea pig; format: in vivo; settings: intravenous, histamin 3 μg/kg one minute later
Protocol: A male guinea pig weighing 300-400 g was intraperitoneally anesthetized with urethane 1.5 g/kg. The test animal was cannulated through the trachea, and then bromopanchlonium was intravenously administered at 0.3 mg/kg to make the test animal inactivate. The animal was respired using a vespirater for a small animal. The airway resistance was recorded on a recorder using a bronchospasin transducer. The administration of the test drug was made through a cannula into the jugular vein. The histamin was administered three times of each 3 μg/kg at 30 minutes intervals, and the increase of the airway resistance was determined. After the determination the test drug was intervenously administered, and then 4th administration of histamin was done after one minute. The increase of airway resistance due to histamin before and after the administration of the test drug was determined, from which inhibition rate of the increase due to the test drug was evaluated.

trachea of humans = experiment: Stimuli of trachea by spraying inhalation in humans; format: in vivo, human; settings: 10 μg/ml solution sprayed at 2 ml/min, ultrasonic inhaler
Protocol: The strength of stimuli to trachea of humans was evaluated by actual spraying inhalation.
Each test drug was dissolved with a small amount of ethyl alcohol, to which distilled water was added to prepare a solution containing test drug at a concentration of 10 μg/ml. Four panels (K, D, T and O) were sprayed into their throats with the each test solution at a rate of 2 ml/min using an ultrasonic inhaler (NE-U10B available from Omlon K.K.), and the strength of the stimuli was observed.

tracheal smooth muscle = experiment: Tracheaectasy: inhibition of histamin-induced contraction of circular slices of guinea pig trachea in Magnus tube; settings: contraction by 5.4×10^-4 M histamin, cumulative administration; for IC20: read-out: IC20 (concentration exhibiting the inhibition rate of 20%); for IC50: read-out: IC50 (concentration exhibiting the inhibition rate of 50%)
Protocol: A male guinea pig weighing about 300 g was beaten to death, and immediately drew the blood by cutting its arteriae femoral as pouring water. A trachea was picked out and cut lengthwise at the opposite side of tracheal smooth muscle and cut into circular slices between cartilages. The obtained seven circular slices of the trachea were tied like as a chain with a thread, and hung into Magnus tube.
After the circular slices of trachea were held for 60-90 minutes until it became stable (disappearence of convulsion), they were administered with 5.4×10^-4 M of histamin to be contracted. After the contraction reached to maximum, each test drug was cumulatively administered so as to inhibit the contraction caused by the histamin.

| SMILES | IC20 (tracheal smooth muscle; Cavia porcellus) [µM] | IC50 (tracheal smooth muscle; Cavia porcellus) [µM] | also measured |
| --- | --- | --- | --- |
| CCCCC(F)(F)C(=O)CC[C@H]1[C@H](O)CC(=O)[C@@H]1C/C=C\CCCC(=O)O [13,14-dihydro-15-keto-16,16-difluoro-PGE2] |  |  | inhibition rate of increase of airway resistance (airway resistance; dose 1 μg/kg): 42%; inhibition rate of increase of airway resistance (airway resistance; dose 3 μg/kg): 100% |
| CCCCC(C)C(=O)CC[C@H]1[C@H](O)CC(=O)[C@@H]1CC(=O)CCCCC(=O)OC (stereo partly shown) [Test drug 9, 13,14-dihydro-6,15-diketo-16R,S-methyl-PGE1 methyl ester] |  |  | strength of stimuli to trachea, panel D (trachea of humans; panel D): -; strength of stimuli to trachea, panel K (trachea of humans; panel K): -; strength of stimuli to trachea, panel O (trachea of humans; panel O): -; strength of stimuli to trachea, panel T (trachea of humans; panel T): - |
| CCCCC[C@H](O)/C=C/[C@H]1[C@H](O)CC(=O)[C@@H]1C/C=C\CCCC(=O)O [Test drug 57, (z)-7-{(1R,2R,3R)-3-hydroxy-2-[(E)-(3S)-3-hydroxy-1-octenyl]-5-oxo-cyclopentyl}-hept-5-enoic acid, reference compound] |  |  | inhibition rate of increase of airway resistance (airway resistance; dose 3 μg/kg): 92% |
| CCCCC(C)C(=O)CCC1C(O)CC(=O)C1CC(=O)CCCCC(=O)OC (stereo not shown) [compound 9] |  |  | IC20 (tracheal smooth muscle): 0.1 µM; IC50 (tracheal smooth muscle): 0.4 µM |
| CCCCC(C)C(=O)CCC1C(O)CC(=O)C1CC(=O)CCCCC(=O)OCC (stereo not shown) [compound 10] |  |  | IC20 (tracheal smooth muscle): 0.1 µM; IC50 (tracheal smooth muscle): 0.6 µM |
| CCCCC(C)(C)C(=O)CC[C@H]1[C@H](O)CC(=O)[C@@H]1CC(=O)CCCCC(=O)OCC [compound 11] |  |  | IC20 (tracheal smooth muscle): 0.8 µM; IC50 (tracheal smooth muscle): 4 µM |
| COC(=O)CCCCC(=O)CC1C(=O)CC(O)C1CCC(=O)CCCC(C)C (stereo not shown) [compound 13] |  |  | IC20 (tracheal smooth muscle): 1 µM; IC50 (tracheal smooth muscle): 30 µM |
| CCOC(=O)CCCCC(=O)CC1C(=O)CC(O)C1CCC(=O)CCCC(C)C (stereo not shown) [compound 14] |  |  | IC20 (tracheal smooth muscle): 0.9 µM; IC50 (tracheal smooth muscle): 30 µM |
| CCCCCCC(=O)CC[C@H]1[C@H](O)CC(=O)[C@@H]1CC(=O)CCCCC(=O)OCC [compound 15] |  |  | IC20 (tracheal smooth muscle): 0.5 µM; IC50 (tracheal smooth muscle): 4 µM |
| CCCCCC(=O)CC[C@H]1[C@H](O)CC(=O)[C@@H]1C/C=C\CC(C)CC(=O)OC (stereo partly shown) [compound 25] |  |  | IC20 (tracheal smooth muscle): 40 µM |
| CCCCCC(=O)CCC1C(O)CC(=O)C1CC=CCC(C)CC(=O)OCC (stereo not shown) [compound 26] |  |  | IC20 (tracheal smooth muscle): 1 µM; IC50 (tracheal smooth muscle): 7 µM |
| CCCCC(C)C(=O)CC[C@H]1[C@H](O)CC(=O)[C@@H]1C/C=C\CCCC(=O)OC (stereo partly shown) [compound 27] |  |  | IC20 (tracheal smooth muscle): 0.08 µM; IC50 (tracheal smooth muscle): 0.4 µM |
| CCCCC(C)C(=O)CCC1C(O)CC(=O)C1CC=CCCCC(=O)OCC (stereo not shown) [compound 28] |  |  | IC20 (tracheal smooth muscle): 0.7 µM; IC50 (tracheal smooth muscle): 7 µM |
| CCCCC(C)C(=O)CC[C@H]1[C@H](O)CC(=O)[C@@H]1C/C=C\CC(C)CC(=O)OC (stereo partly shown) [compound 29] |  |  | IC20 (tracheal smooth muscle): 0.6 µM; IC50 (tracheal smooth muscle): 7 µM |
| CCCCC(C)(C)C(=O)CC[C@H]1[C@H](O)CC(=O)[C@@H]1C/C=C\CCCC(=O)OC [compound 30] |  |  | IC20 (tracheal smooth muscle): 0.6 µM; IC50 (tracheal smooth muscle): 2 µM |
| CCCCC(C)(C)C(=O)CCC1C(O)CC(=O)C1CC=CCCCC(=O)OCC (stereo not shown) [compound 31] |  |  | IC20 (tracheal smooth muscle): 0.4 µM; IC50 (tracheal smooth muscle): 2 µM |
| CCCCC(F)C(=O)CC[C@H]1[C@H](O)CC(=O)[C@@H]1C/C=C\CCCC(=O)OCC (stereo partly shown) [compound 35] | 0.9 | 20 |  |
| CCCCCC(F)C(=O)CC[C@H]1[C@H](O)CC(=O)[C@@H]1C/C=C\CCCC(=O)OC (stereo partly shown) [compound 36] | 0.5 | 5 |  |
| CCCCC(F)C(=O)CC[C@H]1[C@H](CC)CC(=O)[C@@H]1C/C=C\CCCC(=O)OCC (stereo partly shown) [compound 37] | 0.4 | 8 |  |
| CCCCCC(=O)CC[C@H]1[C@H](C)CC(=O)[C@@H]1C/C=C\CCCC(=O)OCC [compound 38] | 0.6 | 7 |  |
| CCC[C@H](C)CC(=O)CC[C@H]1[C@H](O)CC(=O)[C@@H]1C/C=C\CCCC(=O)OC [compound 39] | 3 | 60 |  |
| COC(=O)CCC/C=C\C[C@H]1C(=O)C[C@@H](O)[C@@H]1CCC(=O)CCCC(C)C [compound 40] | 2 | 40 |  |
| CCOC(=O)CCC/C=C\C[C@H]1C(=O)C[C@@H](O)[C@@H]1CCC(=O)CCCC(C)C [compound 41] | 4 |  |  |

| SMILES | IC20 (tracheal smooth muscle; Cavia porcellus) [µM] | IC50 (tracheal smooth muscle; Cavia porcellus) [µM] | also measured |
| --- | --- | --- | --- |
| COCCCCCC(=O)CC[C@H]1[C@H](O)CC(=O)[C@@H]1C/C=C\CCCC(=O)OC [compound 42] | 10 |  |  |
| COCCCCCC(=O)CC[C@H]1[C@H](O)CC(=O)[C@@H]1C/C=C\CC(C)CC(=O)OC (stereo partly shown) [compound 44] | 10 |  |  |
| COCCCCC(C)(C)C(=O)CC[C@H]1[C@H](O)CC(=O)[C@@H]1C/C=C\CCCC(=O)OC [compound 45] | 2 | 10 |  |
| COCCCCCC(=O)CC[C@H]1[C@H](O)CC(=O)[C@@H]1CC#CCCCC(=O)OC [compound 46] | 10 |  |  |
| COCCCC(=O)CC[C@H]1[C@H](O)CC(=O)[C@@H]1C/C=C\CCCC(=O)OC [compound 47] | 0.6 | 3 |  |
| CC(C)=CCCCCC(=O)CC[C@H]1[C@H](O)CC(=O)[C@@H]1C/C=C\CCCC(=O)O [compound 48] | 10 |  |  |
| COC(=O)CCC/C=C\C[C@H]1C(=O)C[C@@H](O)[C@@H]1CCC(=O)CCCCC=C(C)C [compound 49] | 7 |  |  |
| CCCCCCCC(=O)CC[C@H]1[C@H](O)CC(=O)[C@@H]1C/C=C\CCCC(=O)OC [compound 50] | 20 |  |  |
| CCCCCCCC(=O)CC[C@H]1[C@H](O)CC(=O)[C@@H]1C/C=C\CCCC(=O)OCC [compound 51] | 1 | 10 |  |
| CCCCCCCC(=O)CC[C@H]1[C@H](C)CC(=O)[C@@H]1C/C=C\CCCC(=O)OC [compound 52] | 1 |  |  |
| CCCCCCCCC(=O)CC[C@H]1[C@H](O)CC(=O)[C@@H]1C/C=C\CCCC(=O)OC [compound 53] | 10 |  |  |
| CCCCCC(=O)/C=C/[C@H]1[C@H](O)CC(=O)[C@@H]1C/C=C\CCCC(=O)O [compound 54] | 8 | 30 |  |
| CCCCC(F)C(=O)/C=C/[C@H]1[C@H](O)CC(=O)[C@@H]1C/C=C\CCCC(=O)OC (stereo partly shown) [compound 55] | 2 | 10 |  |
| CCCCC[C@H](O)/C=C/[C@H]1[C@H](O)CC(=O)[C@@H]1CCCCCCC(=O)O [compound 56] | 0.002 | 0.08 |  |
| CCCCC[C@H](O)/C=C/[C@H]1[C@H](O)CC(=O)[C@@H]1C/C=C\CCCC(=O)O [compound 57] | 0.01 | 0.1 |  |
| CCC[C@H](C)CC(=O)CC[C@H]1[C@H](O)CC(=O)[C@@H]1C/C=C\CCCC(=O)OCC [compound 58] | 1 | 30 |  |
| CCCCCCC(=O)CC[C@H]1[C@H](O)CC(=O)[C@@H]1CCCCCCC(=O)O [compound 59] | 1 | 4 |  |
| CCCCC(F)C(=O)/C=C/[C@H]1[C@H](O)CC(=O)[C@@H]1C/C=C\CCCC(=O)O (stereo partly shown) [compound 60] | 3 | 7 |  |
| CCC[C@H](C)CC(=O)/C=C/[C@H]1[C@H](O)CC(=O)[C@@H]1C/C=C\CCCC(=O)OCC [compound 61] | 0.7 | 2.5 |  |
| CCCCC(F)C(=O)CC[C@H]1[C@H](O)CC(=O)[C@@H]1CCCCCCC(=O)O (stereo partly shown) [compound 62] | 4 |  |  |
| CCOC(=O)CCCCC(=O)C[C@H]1C(=O)C[C@@H](O)[C@@H]1CCC(=O)CCC(C)CC (stereo partly shown) [compound 63] | 10 |  |  |
| CCCCC(C)C(=O)CC[C@H]1[C@H](O)CC(=O)[C@@H]1CCCCCCC(=O)OC (stereo partly shown) [compound 64] | 0.3 | 1 |  |
